The source of these data is patent US20160122307A1, “PERHYDROQUINOXALINE DERIVATIVES” (DR. AUGUST WOLFF GMBH & CO. KG ARZNEIMITTEL, priority 2013, published 2016).

Like-named read-outs stand apart in the source and are kept apart here.

This experiment concerns the target Human opiate κ receptors (Homo sapiens, UniProt P41145). Nature of the experiment: κ opioid receptor functional assay, [35S]GTPγS binding (assay C). In kind it is biochemical. The note with it: for activation at 1 µM: 0.5 h, read-out: % activation functional assay at 1 μM. On the technique in general: GTPγS is a poorly hydrolysed GTP analogue; its binding reports G protein activation.

Sequence of Human opiate κ receptors (P41145 whole entry): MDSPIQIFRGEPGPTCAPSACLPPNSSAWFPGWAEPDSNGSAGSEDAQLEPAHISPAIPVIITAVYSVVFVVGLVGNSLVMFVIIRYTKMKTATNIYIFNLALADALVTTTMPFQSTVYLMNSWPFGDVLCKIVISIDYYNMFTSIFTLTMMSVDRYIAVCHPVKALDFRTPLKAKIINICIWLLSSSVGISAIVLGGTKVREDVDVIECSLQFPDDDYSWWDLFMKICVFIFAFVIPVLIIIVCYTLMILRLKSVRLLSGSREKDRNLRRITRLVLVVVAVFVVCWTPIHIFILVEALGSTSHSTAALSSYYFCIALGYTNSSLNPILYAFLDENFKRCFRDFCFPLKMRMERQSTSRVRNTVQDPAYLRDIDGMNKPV

For the compound `COC(=O)N1CCN(C(=O)Cc2ccc(C(F)(F)F)c(Cl)c2)C2C(N3CCCC3)CCCC21` (racemic) [Example 50], the activation at 1 µM is 118%. Also, where the note is “GTPγS EC50 (nM)”, the EC50 was < 10 nM. Consider `O=C(C1CCCC1)N1CCN(C(=O)Cc2ccc(Cl)c(Cl)c2)C2C(N3CCCC3)CCCC21` (racemic) [Example 51], for which the activation at 1 µM was 97%. Moreover, the 50% effective concentration (EC50) (GTPγS EC50 (nM)) was < 10 nM. For `O=C(C1COC1)N1CCN(C(=O)Cc2ccc(Cl)c(Cl)c2)C2C(N3CCCC3)CCCC21` (racemic) [Example 54], in that order: 104% and 10 to 100 nM. For `CC(=O)OCC(=O)N1CCN(C(=O)Cc2ccc(Cl)c(Cl)c2)C2C(N3CCCC3)CCCC21` (racemic) [Example 58], the activation at 1 µM came out at 96%. Where the note is “GTPγS EC50 (nM)”, this compound returned an EC50 of 10 to 100 nM.

Regarding `O=C(CO)N1CCN(C(=O)Cc2ccc(Cl)c(Cl)c2)C2C(N3CCCC3)CCCC21` (racemic) [Example 59], the activation at 1 µM stood at 109%. The EC50 (GTPγS EC50 (nM)) was 10 to 100 nM. For `CNC(=O)N1CCN(C(=O)Cc2ccc(Cl)c(Cl)c2)C2C(N3CCCC3)CCCC21` (racemic) [Example 62], in that order: 104% and 10 to 100 nM. The corresponding values for `COC(=O)C(=O)N1CCN(C(=O)Cc2ccc(Cl)c(Cl)c2)C2C(N3CCCC3)CCCC21` (racemic) [Example 65] are 104% and < 10 nM.

Consider `NC(=O)C(=O)N1CCN(C(=O)Cc2ccc(Cl)c(Cl)c2)C2C(N3CCCC3)CCCC21` (racemic) [Example 66], for which the activation at 1 µM turned out to be 100%. Under “GTPγS EC50 (nM)”, this compound had an EC50 of 10 to 100 nM.

As to `COC(=O)COC(=O)N1CCN(C(=O)Cc2ccc(Cl)c(Cl)c2)C2C(N3CCCC3)CCCC21` (racemic) [Example 67], the activation at 1 µM is 106%. Besides, for the setting “GTPγS EC50 (nM)”, the EC50 is < 10 nM. In the case of `NC(=O)COC(=O)N1CCN(C(=O)Cc2ccc(Cl)c(Cl)c2)C2C(N3CCCC3)CCCC21` (racemic) [Example 68], the activation at 1 µM amounted to 104%. In addition, the EC50 (GTPγS EC50 (nM)) lay within 10 to 100 nM.

Regarding `O=C(O)COC(=O)N1CCN(C(=O)Cc2ccc(Cl)c(Cl)c2)C2C(N3CCCC3)CCCC21` (racemic) [Example 69], the activation at 1 µM was 101%. The compound further yielded a concentration for a half-maximal effect (EC50) (GTPγS EC50 (nM)) of 10 to 100 nM.

With `COC(=O)N1CCN(C(=O)Cc2ccc(Cl)c(Cl)c2)C2C(N3CC(O)C3)CCCC21` (racemic) [Example 71], the “% activation functional assay at 1 μM” value is reported as 113%. Moreover, the EC50 (read-out: GTPγS EC50) lay within 10 to 100 nM.

With `Cl.Cl.Cl.O=C(Cc1ccc(Cl)c(Cl)c1)N1CCN(c2cccnc2)C2CCCC(N3CCCC3)C21` (racemic) [Example 72], the “% activation functional assay at 1 μM” value stood at 106%. The EC50 (read-out: GTPγS EC50) was < 10 nM.

As for `COC(=O)CNC(=O)N1CCN(C(=O)Cc2ccc(Cl)c(Cl)c2)C2C(N3CCCC3)CCCC21` (racemic) [Example 75], the activation at 1 µM came out at 113%. Further, for the setting “GTPγS EC50 (nM)”, the EC50 is < 10 nM.

For the compound `NC(=O)CNC(=O)N1CCN(C(=O)Cc2ccc(Cl)c(Cl)c2)C2C(N3CCCC3)CCCC21` (racemic) [Example 76], the activation at 1 µM came to 106%. Also, for the setting “GTPγS EC50 (nM)”, the 50% effective concentration (EC50) lay in the range of 10 to 100 nM. The corresponding values for `O=C(O)CNC(=O)N1CCN(C(=O)Cc2ccc(Cl)c(Cl)c2)C2C(N3CCCC3)CCCC21` (racemic) [Example 77] are 98% and 10 to 100 nM. As for `O=C(C1CCNC1)N1CCN(C(=O)Cc2ccc(Cl)c(Cl)c2)C2C(N3CCCC3)CCCC21` (racemic) [Example 78], the activation at 1 µM turned out to be 64%. Also, the EC50 (GTPγS EC50 (nM)) is 100 to 1000 nM. With `O=C(C=Cc1ccoc1)N1CCN(C(=O)Cc2ccc(Cl)c(Cl)c2)C2C(N3CCCC3)CCCC21` (racemic) [Example 79], the activation at 1 µM came to 102%. Regarding `O=C(C1CCCN1)N1CCN(C(=O)Cc2ccc(Cl)c(Cl)c2)C2C(N3CCCC3)CCCC21` (racemic) [Example 80], the activation at 1 µM was determined as 76%. The compound also had an EC50 (GTPγS EC50 (nM)) of 100 to 1000 nM. With `O=C(c1ncccn1)N1CCN(C(=O)Cc2ccc(Cl)c(Cl)c2)C2C(N3CCCC3)CCCC21` (racemic) [Example 82], the activation at 1 µM was 97%. Regarding `O=C(c1ncccn1)N1CCN(C(=O)Cc2ccc(Cl)c(Cl)c2)C2C(N3CCCC3)CCCC21` (racemic) [Example 83], the “% activation functional assay at 1 μM” value is given as 111%. Consider `COC(=O)c1ccc(C(=O)N2CCN(C(=O)Cc3ccc(Cl)c(Cl)c3)C3C(N4CCCC4)CCCC32)nc1` (racemic) [Example 85], for which the activation at 1 µM is 101%. Consider `COC(=O)c1cccc(C(=O)N2CCN(C(=O)Cc3ccc(Cl)c(Cl)c3)C3C(N4CCCC4)CCCC32)c1` (racemic) [Example 86], for which the activation at 1 µM came out at 86%.

`NC(=O)c1ccc(C(=O)N2CCN(C(=O)Cc3ccc(Cl)c(Cl)c3)C3C(N4CCCC4)CCCC32)cc1` (racemic) [Example 87]: the activation at 1 µM came out at 109%. In the case of `COC(=O)N1CCN(C(=O)Cc2ccc(Cl)c(Cl)c2)C2C(N3CCC(O)CC3)CCCC21` (racemic) [Example 88], the “% activation functional assay at 1 μM” value stood at 107%. In addition, the EC50 (read-out: GTPγS EC50) was < 10 nM. Turning to `O=C(Cc1ccc(Cl)c(Cl)c1)N1CCN(Cc2ccccc2)[C@@H]2CCC[C@H](N3CCCC3)[C@H]21` (racemic) [H, reference compound], the “activation (% of control) at 1 μM” value is on record as 97 % of control. For the same compound, the EC50 (EC50 (nM) [35S]GTPγS binding) amounted to 29 nM. In the case of `CCOC(=O)N1CCN(C(=O)Cc2ccc(Cl)c(Cl)c2)C2C(N3CCCC3)CCCC21` (racemic) [O, reference compound], the “activation (% of control) at 1 μM” value is on record as 88 % of control. Besides, under “read-out: EC50 (nM) [35S]GTPγS binding”, the EC50 was 150 nM. As for `COC(=O)CCC(=O)N1CCN(C(=O)Cc2ccc(Cl)c(Cl)c2)[C@H]2[C@H]1CCC[C@@H]2N1CCCC1` (racemic) [Q, reference compound], a half-maximal effect (EC50) was put at 530 nM and the “activation (% of control) at 1 μM” value is reported as 61 % of control.

On to `COC(=O)N1CCN(C(=O)Cc2ccc(Cl)c(Cl)c2)[C@H]2[C@H](N3CCCC3)CCC[C@@H]21` (racemic) [Reference compound B, reference compound], for which the “activation (% of control) at 1 μM” value is listed as 90 % of control and the activation at 1 µM turned out to be 90%. Take `COC(=O)N1CCN(C(=O)Cc2ccc(Cl)c(Cl)c2)[C@@H]2[C@H]1CCC[C@@H]2N1CCCC1` (racemic) [Reference compound E, reference compound]: the activation at 1 µM was 68%.

`O=C(Cc1ccc(Cl)c(Cl)c1)N1CCN(Cc2cccnc2)[C@@H]2CCC[C@H](N3CCCC3)[C@H]21` (racemic) [Y, reference compound]: the “activation (% of control) at 1 μM” value is 96 % of control. Further, a half-maximal effect (EC50 (nM) [35S]GTPγS binding) (EC50) was put at 34 nM. Take `COC(=O)N1CCN(C(=O)Cc2ccc(Cl)c(Cl)c2)[C@H]2[C@H](N3CCCC3)CCC[C@H]21` (single isomer, unassigned) [Reference compound A, reference compound]: the activation at 1 µM was 51%. Same read-out and setting: then `COC(=O)N1CCN(C(=O)Cc2ccc(Cl)c(Cl)c2)[C@H]2[C@H](N3CCCC3)CCC[C@@H]21` (single isomer, unassigned) [Reference compound C, reference compound], with 85%.

As to `COC(=O)N1CCN(C(=O)Cc2ccc(Cl)c(Cl)c2)[C@H]2[C@H]1CCC[C@@H]2N1CCCC1` (single isomer, unassigned) [Reference compound D, reference compound], the activation at 1 µM is 92%.

What is called EC50 is the midpoint of the concentration-response curve.
